We go through one compound from ChEMBL document CHEMBL5727943, “Composition and methods for inhibiting mammalian sterile 20-like kinase 1” (2020).

In assay [1] the target is T1, Serine/threonine-protein kinase 3 (Homo sapiens, UniProt Q13188).
T1 sequence (Q13188 whole entry): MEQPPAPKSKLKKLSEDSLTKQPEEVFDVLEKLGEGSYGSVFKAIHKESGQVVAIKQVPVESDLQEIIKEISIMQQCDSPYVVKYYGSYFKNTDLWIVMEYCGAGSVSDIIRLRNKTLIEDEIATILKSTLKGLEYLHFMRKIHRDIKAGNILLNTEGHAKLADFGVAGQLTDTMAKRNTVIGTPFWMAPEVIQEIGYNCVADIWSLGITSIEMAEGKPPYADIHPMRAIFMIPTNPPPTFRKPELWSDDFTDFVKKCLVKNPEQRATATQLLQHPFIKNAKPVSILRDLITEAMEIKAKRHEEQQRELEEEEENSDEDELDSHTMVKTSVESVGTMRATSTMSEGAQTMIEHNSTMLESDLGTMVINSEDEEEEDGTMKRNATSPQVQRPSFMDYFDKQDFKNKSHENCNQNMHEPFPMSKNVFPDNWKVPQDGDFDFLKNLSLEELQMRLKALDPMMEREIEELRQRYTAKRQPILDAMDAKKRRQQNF
Put plainly: (§1) MST1/MST2 Biochemical LanthaScreen Eu Kinase Binding Assay: MST1 and MST2 biochemical LanthaScreen Eu Kinase Binding Assay was based on the binding and displacement of kinase tracer to the kinase of interest. Compounds in 1000×DMSO stock solution was dispensed using automated dispensing system (Labcyte) to 384 well Corning Microplate at 15 nL, 5 uL of Kinase buffer A was added to each well. Plates were shaken and incubated for 1 min to ensure well dissolution of compounds. (In general: In TR-FRET formats the signal depends on donor and acceptor labels being close together.)

Assay [2] has as its target T2, Serine/threonine-protein kinase 4 (Homo sapiens, UniProt Q13043).
T2 sequence (Q13043 whole entry): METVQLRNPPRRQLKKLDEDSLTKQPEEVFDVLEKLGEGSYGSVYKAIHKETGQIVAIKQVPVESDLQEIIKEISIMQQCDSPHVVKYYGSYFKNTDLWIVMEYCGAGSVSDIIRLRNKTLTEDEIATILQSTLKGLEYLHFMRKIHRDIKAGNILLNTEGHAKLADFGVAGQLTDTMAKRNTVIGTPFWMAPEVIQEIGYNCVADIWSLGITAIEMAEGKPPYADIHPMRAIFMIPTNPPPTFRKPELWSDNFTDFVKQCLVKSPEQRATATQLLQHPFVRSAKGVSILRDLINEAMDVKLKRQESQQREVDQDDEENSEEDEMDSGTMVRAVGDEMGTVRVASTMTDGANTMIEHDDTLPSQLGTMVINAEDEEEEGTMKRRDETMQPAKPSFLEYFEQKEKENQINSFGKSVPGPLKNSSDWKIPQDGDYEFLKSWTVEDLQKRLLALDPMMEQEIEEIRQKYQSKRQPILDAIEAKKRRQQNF
The assay is described as §1.

By IC50 is commonly meant the concentration at which inhibition is half-maximal. Higher therefore signals weaker potency. Consider `CCOc1cc2ncc(C#N)c(Nc3ccc(OCc4ncccc4C)cc3Cl)c2cc1NC(=O)/C=C/CN(C)C`, for which the IC50 in assay [1] and in assay [2] was less than 100 nM in each case.
